# Experiments:
# Candida albicans [1] = experiment: Antifungal activity against azole-susceptible Candida albicans MYA2876 incubated for 24 to 36 hrs by two fold dilution method; format: functional
# Staphylococcus aureus [2] = experiment: Antibacterial activity against Staphylococcus aureus ATCC 25923 incubated for 18 hrs by two fold dilution method; format: functional; settings: ATCC 25923, 18 h
# Staphylococcus aureus [3] = experiment: Antibacterial activity against methicillin-resistant Staphylococcus aureus ATCC 33591 incubated for 18 hrs by two fold dilution method; format: functional; settings: ATCC 33591, 18 h
# Candida albicans [4] = experiment: Antifungal activity against azole-resistant Candida albicans 64124 incubated for 24 to 36 hrs by two fold dilution method; format: functional
# Cryptococcus neoformans [5] = experiment: Antifungal activity against Cryptococcus neoformans VR-54 incubated for 24 to 36 hrs by two fold dilution method; format: functional
# HeLa = experiment: Cytotoxicity against human HeLa cells assessed as reduction in cell viability incubated for 24 hrs by MTT assay; format: cell-based
# Cryptococcus neoformans [6] = experiment: Antifungal activity against Cryptococcus neoformans H99 incubated for 24 to 36 hrs by two fold dilution method; format: functional
# Candida tropicalis = experiment: Antifungal activity against Candida tropicalis 95-41 incubated for 24 to 36 hrs by two fold dilution method; format: functional
# Fusarium graminearum = experiment: Antifungal activity against Fusarium graminearum B4-5A incubated for 24 to 36 hrs by two fold dilution method; format: functional
# Staphylococcus aureus [7] = experiment: Antibacterial activity against methicillin-resistant Staphylococcus aureus ATCC 43300 incubated for 18 hrs by two fold dilution method; format: functional; settings: ATCC 43300, 18 h
# Candida albicans [8] = experiment: Antifungal activity against Candida albicans B-311 incubated for 24 to 36 hrs by two fold dilution method; format: functional
# Escherichia coli = experiment: Antibacterial activity against Escherichia coli ATCC 25922 incubated for 18 hrs by two fold dilution method; format: functional; settings: ATCC 25922, 18 h
# Rhodotorula mucilaginosa = experiment: Antifungal activity against Rhodotorula pilimanae ATCC 26423 incubated for 24 to 36 hrs by two fold dilution method; format: functional
# Diutina rugosa = experiment: Antifungal activity against Candida rugosa 95-967 incubated for 24 to 36 hrs by two fold dilution method; format: functional
# Candida parapsilosis = experiment: Antifungal activity against azole-resistant Candida parapsilosis Cas08-0490 incubated for 24 to 36 hrs by two fold dilution method; format: functional; settings: Lodderomyces parapsilosis
SMILES,MIC (Candida albicans [1]) [µg/mL],MIC (Staphylococcus aureus [2]) [µg/mL],MIC (Staphylococcus aureus [3]) [µg/mL],MIC (Candida albicans [4]) [µg/mL],MIC (Cryptococcus neoformans [5]) [µg/mL],IC50 (HeLa) [µg/mL],MIC (Cryptococcus neoformans [6]) [µg/mL],MIC (Candida tropicalis) [µg/mL],MIC (Fusarium graminearum) [µg/mL],MIC (Staphylococcus aureus [7]) [µg/mL],MIC (Candida albicans [8]) [µg/mL],MIC (Escherichia coli) [µg/mL],MIC (Rhodotorula mucilaginosa) [µg/mL],MIC (Diutina rugosa) [µg/mL],MIC (Candida parapsilosis) [µg/mL]
CCCCCCCCCCCCNC[C@H]1O[C@H](O[C@@H]2[C@@H](O)[C@H](O[C@H]3O[C@H](CN)[C@@H](O)[C@H](O)[C@H]3O)[C@@H](N)C[C@H]2N)[C@H](O)[C@@H](N)[C@@H]1O.Cl.Cl.Cl.Cl.Cl,64,64,64,16,2,> 100,2,32,2,32,32,16,2,16,32
CCCCCCCCCCSC[C@H]1O[C@H](O[C@@H]2[C@@H](O)[C@H](O[C@H]3O[C@H](CN)[C@@H](O)[C@H](O)[C@H]3O)[C@@H](N)C[C@H]2N)[C@H](O)[C@@H](N)[C@@H]1O.Cl.Cl.Cl.Cl,64,64,64,64,8,,8,128,32,32,128,64,4,64,128
CCCCCCCCNC[C@H]1O[C@H](O[C@@H]2[C@@H](O)[C@H](O[C@H]3O[C@H](CN)[C@@H](O)[C@H](O)[C@H]3O)[C@@H](N)C[C@H]2N)[C@H](O)[C@@H](N)[C@@H]1O.Cl.Cl.Cl.Cl.Cl,> 256,128,> 256,256,16,,16,> 256,32,128,> 256,256,16,> 256,> 256
CCCCCCSC[C@H]1O[C@H](O[C@@H]2[C@@H](O)[C@H](O[C@H]3O[C@H](CN)[C@@H](O)[C@H](O)[C@H]3O)[C@@H](N)C[C@H]2N)[C@H](O)[C@@H](N)[C@@H]1O.Cl.Cl.Cl.Cl,> 256,256,> 256,> 256,64,,128,> 256,256,> 256,> 256,128,32,> 256,> 256
CCCCCCNC[C@H]1O[C@H](O[C@@H]2[C@@H](O)[C@H](O[C@H]3O[C@H](CN)[C@@H](O)[C@H](O)[C@H]3O)[C@@H](N)C[C@H]2N)[C@H](O)[C@@H](N)[C@@H]1O.Cl.Cl.Cl.Cl.Cl,> 256,64,> 256,> 256,128,,128,> 256,64,> 256,> 256,256,128,> 256,> 256
CCCCCCCCCCNC[C@H]1O[C@H](O[C@@H]2[C@@H](O)[C@H](O[C@H]3O[C@H](CN)[C@@H](O)[C@H](O)[C@H]3O)[C@@H](N)C[C@H]2N)[C@H](O)[C@@H](N)[C@@H]1O.Cl.Cl.Cl.Cl.Cl,> 256,128,256,128,8,,8,> 256,32,64,256,64,8,256,256
CCCCCCCCCCCCCCSC[C@H]1O[C@H](O[C@@H]2[C@@H](O)[C@H](O[C@H]3O[C@H](CN)[C@@H](O)[C@H](O)[C@H]3O)[C@@H](N)C[C@H]2N)[C@H](O)[C@@H](N)[C@@H]1O.Cl.Cl.Cl.Cl,4,16,16,4,2,52.9,2,4,2,16,8,16,2,8,16
CCCCCCCCCCCCCCCCNC[C@H]1O[C@H](O[C@@H]2[C@@H](O)[C@H](O[C@H]3O[C@H](CN)[C@@H](O)[C@H](O)[C@H]3O)[C@@H](N)C[C@H]2N)[C@H](O)[C@@H](N)[C@@H]1O.Cl.Cl.Cl.Cl.Cl,8,16,32,4,2,41.6,2,4,2,32,4,32,2,4,4
NC[C@H]1O[C@H](O[C@H]2[C@H](O)[C@@H](O[C@H]3O[C@H](CO)[C@@H](O)[C@H](N)[C@H]3O)[C@H](N)C[C@@H]2N)[C@H](O)[C@@H](O)[C@@H]1O [KANAMYCIN],≥ 256,4,> 256,≥ 256,≥ 256,,,,≥ 256,> 256,≥ 256,4,≥ 256,,
Cc1ccc(S(=O)(=O)OC[C@H]2O[C@H](O[C@@H]3[C@@H](O)[C@H](O[C@H]4O[C@H](CN)[C@@H](O)[C@H](O)[C@H]4O)[C@@H](N)C[C@H]3N)[C@H](O)[C@@H](N)[C@@H]2O)cc1.Cl.Cl.Cl.Cl,> 256,32,> 256,> 256,> 256,,> 256,> 256,128,> 256,> 256,16,128,> 256,> 256
CCCCCCCCS(=O)(=O)OC[C@H]1O[C@H](O[C@@H]2[C@@H](O)[C@H](O[C@H]3O[C@H](CN)[C@@H](O)[C@H](O)[C@H]3O)[C@@H](N)C[C@H]2N)[C@H](O)[C@@H](N)[C@@H]1O,16,,,16,4,,4,16,8,,16,,4,32,16
CCCCCCCCSC[C@H]1O[C@H](O[C@@H]2[C@@H](O)[C@H](O[C@H]3O[C@H](CN)[C@@H](O)[C@H](O)[C@H]3O)[C@@H](N)C[C@H]2N)[C@H](O)[C@@H](N)[C@@H]1O.Cl.Cl.Cl.Cl,256,128,256,128,64,,128,> 256,128,256,> 256,128,32,256,> 256

# From ChEMBL document CHEMBL4359907, “Scalable and cost-effective tosylation-mediated synthesis of antifungal and fungal diagnostic 6″-Modified amphiphilic kanamycins” (Eur J Med Chem, 2019)
